Columns and labels:
Collagen 3a = test: mRNA expression in fibroblast cultures (qRT-PCR): collagen 3; type: cell-based, human
Protocol: (§1) Cells were seeded into 24-well plates and incubated with compounds in the presence or absence of wound exudates for 72 hours. Total RNA was isolated using the RNeasy Mini Kit (QIAGEN #74106) according to the manufacturer's protocol. RNA integrity and concentration for each sample was confirmed and measured with the Qubit fluorometer. Each RNA sample was then diluted to 2 ng/μl in nuclease-free doubly distilled water.
(§2) 20 ng of total RNA were reverse-transcribed into cDNA and immediately subjected to PCR amplification using the SuperScript Ill Platinum One-Step Quantitative RT-PCR System with ROX (Invitrogen #11745). qRT-PCR amplifications were performed in 20 μl reactions containing 9 μl 2× Reaction Mix with ROX, 0.4 μl SuperScript III RT/Platinum Taq Mix and 1 μl primer (final: 900 nM, Taqman Gene Expression Assay, Applied Biosystems)
(§3) The program included 30 minutes of reverse transcription at 48° C., an initial denaturation for 5 minutes at 95° C. followed by 40 cycles of denaturation at 95° C. for 15 seconds and annealing at 60° C. for 60 seconds. Reactions were set up in 96-well format PCR plates (Peqlab #732-2879) and carried out in a Mx3005P Real-Time PCR Detection System (Stratagene).
(§4) TaqMan Gene Expression Assays (Applied Biosystems) were used, which include preoptimized probe and primer sets specific for the genes being validated. The sequences and ID numbers are listed below:
(§5) The house keeping gene elongation factor 1a (EF1a) was used as a reference gene. Normalized expression was calculated using the comparative Ct (or ΔCt) method, and fold changes were derived from the 2-ΔΔCt values for each gene. Graphs were prepared using relative Ct values that were calculated by subtracting the EF1a Ct values from the corresponding Ct values for the gene being measured.

Collagen 1a = test: mRNA expression in fibroblast cultures (qRT-PCR): collagen 1; type: cell-based, human
Protocol: as §1, §2, §3, §4, §5

IL-1β = IL-1β secretion into the supernatant in the fibroblast proliferation assay (ELISA); type: cell-based, human; details: WE-1 (FIG. 2B, 9B), graded concentrations
Protocol: Primary human dermal fibroblasts (HDF) were purchased from CELLnTEC, Bern. They were routinely grown in Dulbecco's modified Eagle's medium (DMEM) containing 10% FCS, 2 mM glutamine, and 100 U/ml penicillin/100 μg/ml streptomycin. Media, antibiotics, and glutamine were bought from Lonza. The cells were used at passage 5-15. Cells were trypsinized and seeded at 2500 cells/well in 30 μl into the inner wells of 384-well plates in the absence or presence of graded compound concentrations with or without different dilutions of sterile-filtered WE in medium. For control samples, 30 μl medium was added instead of specific stimuli. The outer wells were loaded with sterile water. The cells were incubated for 72 hours at 37° C.
At the end of the incubation period, supernatants were removed for the determination of IL-1β, and the cells were fixed with 4% paraformaldehyde (Morphisto) for 15 minutes at room temperature and washed 3 times with PBS. A control plate was fixed after the overnight adherence of the cells (day 1) to determine the starting cell number.
IL-1β levels were determined with a commercial ELISA kit. The amount of IL-1β contained in the wound exudate added to the cells was subtracted from the total IL-B in the supernatants in order to determine the cytokine secreted by the cells.

IL-8 [1] = test: Primary human monocyte cytokine secretion assay (spontaneous IL-8); type: cell-based; details: 16 hours (FIG. 16B)
Protocol: Primary human monocytes were prepared from peripheral blood mononuclear cells (PBMC). PBMC were isolated from buffy coats obtained from the Red Cross, Vienna, using LymphoPrep (Technoclone). 30 ml of buffy concentrate was diluted 1:2 with PBS, gently underlayered with 15 ml Lymphoprep in a 50 ml Falcon tube and centrifuged for 25 minutes at 1800 rpm at 21° C. The interphase was carefully transferred to a new Falcon tube and filled up to 50 ml with ice cold PBS. After another centrifugation step (10 minutes, 1200 rpm, 4° C.), the cell pellet was washed 3 times with PBS, resuspended in RPMI medium containing 20% FCS and 10% DMSO and frozen in liquid nitrogen. Monocytes were generated from frozen aliquots using positive selection with the CD14 Beads-Kit (Miltenyi) on an autoMACS-Sorter (Miltenyi) according to the manufacturer's instructions.
Cells were seeded at 8×10^5/ml in 50 μl/well of a 384-well plate and combined cells with graded concentrations of test compounds. After 16 hours, the supernatants were transferred to fresh plates and frozen at −20° C. for IL-8 analysis, using a commercial ELISA kit.

[2] = system: human dermal fibroblast (HDF) cells; test: Fibroblast-derived matrix formation (FDM) assay, 3D fibroblast culture; type: cell-based
Protocol: Human dermal fibroblast (HDF) cells were seeded at 1250 cells/well on day −3 into 384-well tissue culture plates, which had been pre-coated for 1 hour at 37° C. with 0.2% gelatin solution (Sigma). When the cells reached confluence (=day 0), a matrix promoting supplement (vitamin C: 2-phospho-L-ascorbic acid trisodium salt, 100 μg/ml; Sigma) was added together with test samples containing TGF-β1 or graded concentrations of compounds −/+WE as described for the HDF proliferation assay. After 4 days, medium was replaced by fresh vitamin C—and stimulus—as well as compound-containing medium, maintaining the conditions initiated on day 0. TGF-β1 was included as a positive control to promote FDM formation. After a total incubation time of 7 to 8 days, FDM production was measured in fixed cultures via SRB staining and evaluated as described above. In some cases, the experiment was stopped and evaluated already on day 4.

IL-8 [3] = test: U937 cell stimulation assay (LPS-induced IL-8); type: cell-based, human; details: LPS 100 ng/ml, 16 hours (FIG. 16A)
Protocol: The human monocytic cell line U937 (ATCC CRL 1593) was routinely grown in RPMI_1640 supplemented by 10% FCS and 2 mM glutamine, and 100 U/ml penicillin/100 μg/ml streptomycin. Cells were seeded at 4×10^5/ml in 50 μl/well of a 384-well plate and combined cells with graded concentrations of test compounds and LPS at 100 ng/ml. After 16 hours, the supernatants were transferred to fresh plates and frozen at −20° C. for IL-8 analysis, using a commercial ELISA kit.

[4] = medium in the absence of WE, 72-hour incubation

Compound | collagen 3 mRNA expression (Collagen 3a; [4]) | collagen 1 mRNA expression (Collagen 1a; [4]) | IL-1β secretion into the supernatant (IL-1β) | spontaneous IL-8 secretion in human monocytes (IL-8 [1]) | formation of fibroblast-derived matrix (3D) ([2]; WE from patient #92 (FIG. 12)) | LPS-induced IL-8 secretion in U937 cells (IL-8 [3]) | collagen 3 mRNA expression (Collagen 3a; WE-2, 1 μM, 72-hour incubation (FIG. 3B)) | collagen 1 mRNA expression (Collagen 1a; WE-2, 1 μM, 72-hour incubation (FIG. 3A)) | formation of fibroblast-derived matrix (3D) ([2]; WE-1, graded concentrations (FIG. 4))
CCS(=O)(=O)c1cc2cc(C[C@@](O)(CC(C)(C)c3ccc(F)cc3C(N)=O)C(F)(F)F)[nH]c2cn1 [BI-3047] | reduction of collagen 3 mRNA with medium | no significant effect on collagen 1 mRNA in the presence of medium | much less effect on IL-1β secretion | even induced IL-8 secretion at the highest concentrations | did not induce matrix formation | even induced IL-8 secretion at the highest concentrations | – | – | –
CCS(=O)(=O)c1cc2cc(C[C@](O)(CC(C)(C)c3ccc(F)cc3C(N)=O)C(F)(F)F)[nH]c2cn1 [BI-653048, (R)-2-(4-((5-(Ethylsulfonyl)-1H-pyrrolo[2,3-c]pyridin-2-yl)methyl)-5,5,5-trifluoro-4-hydroxy-2-methylpentan-2-yl)-5-fluorobenzamide] | reduction of collagen 3 mRNA with medium | no significant effect on collagen 1 mRNA in the presence of medium | inhibited IL-1β secretion at the same concentrations | inhibited both LPS-induced and spontaneous IL-8 secretion | – | inhibited both LPS-induced and spontaneous IL-8 secretion | induced mRNA expression of both collagens 1 and 3 in the presence of wound exudate | induced mRNA expression of both collagens 1 and 3 in the presence of wound exudate | effective in inducing matrix formation in the presence of wound exudate

— patent publication US12496304B2, “Selective glucocorticoid receptor modifiers for treating impaired skin wound healing” (AKRIBES BIOMEDICAL GMBH, priority 2019, dated 2025)
